From PMC6321168, “Comparative Study on Excretive Characterization of Main Components in Herb Pair Notoginseng-Safflower and Single Herbs by LC–MS/MS” (Pharmaceutics, 2018)

Test: Fecal excretion study in rats after oral NS, SF or CNS (LC–MS/MS)
Assay type: in vivo
Settings: rat feces
Protocol: The animal room was set at constant temperature of 20 ± 2 °C with humidity of 50 ± 20% and 12/12 h light/dark cycle.
Eighteen male rats were fasted for 12 h before starting the experiment. The rats were divided into three groups at random (n = 6) and received NS (60 mg/kg), SF (50 mg/kg), and NS (60 mg/kg) + SF (50 mg/kg), respectively, by oral gavage. The rats were placed in separate metabolic cages. The urine samples were collected at 0–2, 2–4, 4–6, 6–8, 8–12, 12–24, 24–36, 36–48, 48–72, 72–96, and 96–120 h. The feces samples were collected at 0–4, 4–8, 8–12, 12–24, 24–36, 36–48, 48–72, 72–96, and 96–120 h. The urine volume was recorded and the dry feces were measured for each collection period. Samples were stored at −80 °C until analysis.
Feces samples were homogenized in ultrapure water (1 g/15 mL), soaked for 30 min, ultrasonically extracted for 30 min and centrifuged at 9000 rpm for 8 min. An aliquot of 200 μL feces water extraction solution was mixed with 10 μL of IS and then extracted three times with water-saturated n-BuOH (150 μL). The upper organic phase was combined and evaporated to dryness using a ZLS-2 vacuum centrifugal concentrator. The residue was treated as the urine sample and a 1-μL aliquot was injected for LC–MS analysis.
Ultra fast liquid chromatography (UFLC) analysis was performed using a Shimadzu UFLC system (DGU-20A3R Degasser; LC-20AD pump; SIL-20AXR Autosampler; CTO-20AC Column Oven) (Nakagyo-Ku, Koyoto, Japan). […] Because of the different endogenous substances in the urine and feces samples, different elution gradients were used to alleviate the matrix effects for the analytes.
The mass spectrometric detection was performed on an ABSciex 4500 Qtrap mass spectrometer (ABSciex, Foster City, CA, USA) equipped with a negative electrospray ionization (ESI) interface using multiple reaction monitoring (MRM). The MS parameters were optimized under the selected ion monitoring conditions as follows: curtain gas, 35 psi; ionspray voltage, 4500 V; turbo gas temperature, 450 °C; GS1, 45 psi; GS2, 45 psi. All data were acquired and analyzed by Analyst software (Versions 1.6.2) from ABSciex.
The accumulative excretion percentage was calculated for each analyte as follows. Excretion at time (t) = [concentration of the analyte (ng/mL) at t] × total urine (or feces) volume (mL) at t. The cumulative excretion up to time t (mg) was expressed as a percent (%) cumulative excretion by dividing by the total amount of the analyte ingested (mg): % Cumulative Excretion = 100 × (Σt excretiont) total ingested.

- concentration at 4 h (male, Sprague Dawley, oral CNS 110 mg/kg, 4 h): 0.555 ± 0.763 µg/mL
- concentration at 8 h (male, Sprague Dawley, oral CNS 110 mg/kg, 8 h): 1.08 ± 0.431 µg/mL
- concentration at 12 h (male, Sprague Dawley, oral CNS 110 mg/kg, 12 h): 0.899 ± 0.096 µg/mL
- concentration at 24 h (male, Sprague Dawley, oral CNS 110 mg/kg, 24 h): 0.802 ± 0.025 µg/mL
- concentration at 36 h (male, Sprague Dawley, oral CNS 110 mg/kg, 36 h): 0.548 ± 0.036 µg/mL
- concentration at 48 h (male, Sprague Dawley, oral CNS 110 mg/kg, 48 h): 0.552 ± 0.03 µg/mL
- concentration at 72 h (male, Sprague Dawley, oral CNS 110 mg/kg, 72 h): 0.455 ± 0.377 µg/mL
- concentration at 96 h (male, Sprague Dawley, oral CNS 110 mg/kg, 96 h): 0.021 ± 0.02 µg/mL
- concentration at 4 h (male, Sprague Dawley, oral NS 60 mg/kg, 4 h): 1.08 ± 0.156 µg/mL
- concentration at 8 h (male, Sprague Dawley, oral NS 60 mg/kg, 8 h): 0.767 ± 0.029 µg/mL
- concentration at 12 h (male, Sprague Dawley, oral NS 60 mg/kg, 12 h): 2.06 ± 0.137 µg/mL
- concentration at 24 h (male, Sprague Dawley, oral NS 60 mg/kg, 24 h): 2.18 ± 0.09 µg/mL
- concentration at 36 h (male, Sprague Dawley, oral NS 60 mg/kg, 36 h): 0.92 ± 0.048 µg/mL
- concentration at 48 h (male, Sprague Dawley, oral NS 60 mg/kg, 48 h): 1.02 ± 0.052 µg/mL
- concentration at 72 h (male, Sprague Dawley, oral NS 60 mg/kg, 72 h): 0.12 ± 0.009 µg/mL
- concentration at 96 h (male, Sprague Dawley, oral NS 60 mg/kg, 96 h): 0.019 ± 0.004 µg/mL
- concentration at 120 h (male, Sprague Dawley, oral NS 60 mg/kg, 120 h): 0.017 ± 0.003 µg/mL
- Accumulative excretion amount (oral CNS 110 mg/kg, 4 h): 7.072 ± 10.199 µg
- Accumulative excretion percentage (oral CNS 110 mg/kg, 4 h): 0.192±0.275%
- Excretion amount (oral CNS 110 mg/kg, 4 h): 7.072 ± 10.199 µg
- Accumulative excretion amount (oral CNS 110 mg/kg, 8 h): 22.570 ± 15.790 µg
- Accumulative excretion percentage (oral CNS 110 mg/kg, 8 h): 0.607±0.426%
- Excretion amount (oral CNS 110 mg/kg, 8 h): 15.499 ± 6.228 µg
- Accumulative excretion amount (oral CNS 110 mg/kg, 12 h): 36.062 ± 14.935 µg
- Accumulative excretion percentage (oral CNS 110 mg/kg, 12 h): 0.968±0.409%
- Excretion amount (oral CNS 110 mg/kg, 12 h): 13.492 ± 4.335 µg
- Accumulative excretion amount (oral CNS 110 mg/kg, 24 h): 48.081 ± 16.475 µg
- Accumulative excretion percentage (oral CNS 110 mg/kg, 24 h): 1.282±0.443%
- Excretion amount (oral CNS 110 mg/kg, 24 h): 12.018 ± 3.497 µg
- Accumulative excretion amount (oral CNS 110 mg/kg, 36 h): 56.222 ± 17.772 µg
- Accumulative excretion percentage (oral CNS 110 mg/kg, 36 h): 1.501±0.476%
- Excretion amount (oral CNS 110 mg/kg, 36 h): 8.141 ± 2.259 µg
- Accumulative excretion amount (oral CNS 110 mg/kg, 48 h): 64.538 ± 19.434 µg
- Accumulative excretion percentage (oral CNS 110 mg/kg, 48 h): 1.723±0.522%
- Excretion amount (oral CNS 110 mg/kg, 48 h): 8.316 ± 2.614 µg
- Accumulative excretion amount (oral CNS 110 mg/kg, 72 h): 71.863 ± 19.005 µg
- Accumulative excretion percentage (oral CNS 110 mg/kg, 72 h): 1.923±0.515%
- Excretion amount (oral CNS 110 mg/kg, 72 h): 7.325 ± 6.432 µg
- Accumulative excretion amount (oral CNS 110 mg/kg, 96 h): 72.213 ± 19.048 µg
- Accumulative excretion percentage (oral CNS 110 mg/kg, 96 h): 1.931±0.512%
- Excretion amount (oral CNS 110 mg/kg, 96 h): 0.350 ± 0.350 µg
- Accumulative excretion amount (oral CNS 110 mg/kg, 120 h): 72.213 ± 19.048 µg
- Accumulative excretion percentage (oral CNS 110 mg/kg, 120 h): 1.931±0.513%
- Accumulative excretion amount (oral NS 60 mg/kg, 4 h): 15.357 ± 4.697 µg
- Accumulative excretion percentage (oral NS 60 mg/kg, 4 h): 0.361±0.113%
- Excretion amount (oral NS 60 mg/kg, 4 h): 15.357 ± 4.697 µg
- Accumulative excretion amount (oral NS 60 mg/kg, 8 h): 26.423 ± 8.057 µg
- Accumulative excretion percentage (oral NS 60 mg/kg, 8 h): 0.624±0.192%
- Excretion amount (oral NS 60 mg/kg, 8 h): 11.066 ± 3.551 µg
- Accumulative excretion amount (oral NS 60 mg/kg, 12 h): 56.148 ± 17.467 µg
- Accumulative excretion percentage (oral NS 60 mg/kg, 12 h): 1.312±0.411%
- Excretion amount (oral NS 60 mg/kg, 12 h): 29.724 ± 9.595 µg
- Accumulative excretion amount (oral NS 60 mg/kg, 24 h): 87.371 ± 26.505 µg
- Accumulative excretion percentage (oral NS 60 mg/kg, 24 h): 2.043±0.622%
- Excretion amount (oral NS 60 mg/kg, 24 h): 31.223 ± 9.132 µg
- Accumulative excretion amount (oral NS 60 mg/kg, 36 h): 100.721 ± 31.049 µg
- Accumulative excretion percentage (oral NS 60 mg/kg, 36 h): 2.354±0.725%
- Excretion amount (oral NS 60 mg/kg, 36 h): 13.350 ± 4.715 µg
- Accumulative excretion amount (oral NS 60 mg/kg, 48 h): 115.527 ± 36.105 µg
- Excretion amount (oral NS 60 mg/kg, 48 h): 14.806 ± 5.076 µg
- Accumulative excretion amount (oral NS 60 mg/kg, 72 h): 117.237 ± 36.600 µg
- Accumulative excretion percentage (oral NS 60 mg/kg, 72 h): 2.731±0.854%
- Excretion amount (oral NS 60 mg/kg, 72 h): 1.710 ± 0.525 µg
- Accumulative excretion amount (oral NS 60 mg/kg, 96 h): 117.502 ± 36.686 µg
- Accumulative excretion percentage (oral NS 60 mg/kg, 96 h): 2.741±0.854%
- Excretion amount (oral NS 60 mg/kg, 96 h): 0.264 ± 0.103 µg
- Accumulative excretion amount (oral NS 60 mg/kg, 120 h): 117.753 ± 36.774 µg
- Accumulative excretion percentage (oral NS 60 mg/kg, 120 h): 2.745±0.858%
- Excretion amount (oral NS 60 mg/kg, 120 h): 0.252 ± 0.100 µg
Compound: CC(C)=CCC[C@](C)(O[C@@H]1O[C@H](CO[C@@H]2O[C@H](CO)[C@@H](O)[C@H](O)[C@H]2O)[C@@H](O)[C@H](O)[C@H]1O)[C@H]1CC[C@]2(C)[C@@H]1[C@H](O)C[C@@H]1[C@@]3(C)CC[C@H](O[C@@H]4O[C@H](CO)[C@@H](O)[C@H](O)[C@H]4O[C@@H]4O[C@H](CO)[C@@H](O)[C@H](O)[C@H]4O)C(C)(C)[C@@H]3CC[C@]12C [ginsenoside Rb1]
